Data published in patent publication US20070148232A1, “Stabilized pharmaceutical solid compositions of low-solubility drugs and poloxamers, and stabilizing polymers” (Pfizer Inc., priority 2003, published 2007).
In brackets after ≈: the same amount, converted by molar mass.

Columns and labels:
Format in all cases: physicochemical
[1] = in vitro dissolution test of Drug 1 compositions in PBS; conditions: dose 1000 μg/mL; for AUC / Drug 1 Concentration: PBS, 37° C.
Experimental: The solid composition of Example 1 was evaluated in an in vitro dissolution test as follows. For each test, the composition was added to microcentrifuge tubes in duplicate. […] The samples were quickly mixed using a vortex mixer for about 60 seconds. The samples were centrifuged at 13,000 G at 37° C. for 1 minute. The resulting supernatant solution was then sampled and diluted 1:6 (by volume) with methanol and then analyzed by high-performance liquid chromatography (HPLC). The contents of each respective tube were mixed on the vortex mixer and allowed to stand undisturbed at 37° C. until the next sample was taken. Samples were collected at 4, 10, 20, 40, 90, and 1200 minutes. […] The tubes were placed in a 37° C. temperature-controlled chamber, and 1.8 mL PBS was added. As a control (C4), crystalline Drug 1 alone was tested in PBS and a sufficient amount of material was added so that the concentration of drug would have been 1000 μg/mL, if all of the drug had dissolved.

[2] = in vitro dissolution test of Drug 1 compositions in MFDS; conditions: dose 1000 μg/mL; for AUC / Drug 1 Concentration: MFDS, 37° C.
Experimental: The solid composition of Example 1 was evaluated in an in vitro dissolution test as follows. For each test, the composition was added to microcentrifuge tubes in duplicate. […] The samples were quickly mixed using a vortex mixer for about 60 seconds. The samples were centrifuged at 13,000 G at 37° C. for 1 minute. The resulting supernatant solution was then sampled and diluted 1:6 (by volume) with methanol and then analyzed by high-performance liquid chromatography (HPLC). The contents of each respective tube were mixed on the vortex mixer and allowed to stand undisturbed at 37° C. until the next sample was taken. Samples were collected at 4, 10, 20, 40, 90, and 1200 minutes. As a control (C1), crystalline Drug 1 alone was added 1.8 mL of MFDS, at a sufficient amount so that the concentration of drug would have been 1000 μg/mL, if all of the drug had dissolved. […] Control C2 consisted of 50 wt % Drug 1 and 50 wt % HPMC. The composition was formed by first forming a spray solution consisting of […] Drug 1 and 250 mg HPMC in 58.7 gm of a 50.7:8 w/w mixture of acetone:water. This solution was pumped into a “mini” spray-drying apparatus via a Cole Parmer 74900 series rate-controlling syringe pump at a rate of 70 ml/hr. The spray solution was atomized through a Spraying Systems Co. two-fluid nozzle, Model No. SU1A, using a heated stream of nitrogen at a flow rate of 1 SCFM. The spray solution was sprayed into an 11-cm diameter stainless steel chamber. The heated gas entered the chamber at an inlet temperature of 110° C. and exited at ambient temperature. The resulting solid composition was collected on filter paper, dried under vacuum, and stored in a desiccator. This composition was tested in a dissolution test using the procedures described above except that a sufficient amount of the composition was added so that the concentration if all of the drug had dissolved would have been 3000 μg/mL. The stability of the solid composition of Example 1 was evaluated in an accelerated storage test. The composition was stored under elevated temperature and humidity conditions to increase the rate of physical changes occurring in the material in order to simulate a longer storage interval in a typical storage environment. A sample of the composition was stored for 3 weeks at 40° C./75% RH.

[3] = in vitro dissolution test of Drug 2 compositions in PBS; conditions: dose 1000 μg/mL; for AUC90 / MDC90: initial ninety minutes; for AUC / Drug 2 Concentration: PBS, 37° C.
Experimental: The solid composition of Example 1 was evaluated in an in vitro dissolution test as follows. For each test, the composition was added to microcentrifuge tubes in duplicate. A 4.21 mg sample of the composition was added to each tube for a total concentration of 1000 μg/mL drug, if all of the drug had dissolved. The tubes were placed in a 37° C. temperature-controlled chamber, and 1.8 mL PBS containing 0.5 wt % sodium taurocholic acid and 1-palmitoyl-2-oleyl-sn-glycero-3-phosphocholine (NaTC/POPC, with a […] weight ratio) at pH 6.5 and 290mOsm/kg (model fasted duodenal solution, “MFDS”) was added to each respective tube. The samples were quickly mixed using a vortex mixer for about 60 seconds. The samples were centrifuged at 13,000 G at 37° C. for 1 minute. The resulting supernatant solution was then sampled and diluted 1:6 (by volume) with methanol and then analyzed by high-performance liquid chromatography (HPLC). The contents of each respective tube were mixed on the vortex mixer and allowed to stand undisturbed at 37° C. until the next sample was taken. Samples were collected at 4, 10, 20, 40, 90, and 1200 minutes.
A sufficient amount of the composition was added to each tube (in duplicate) for a total concentration of 1000 μg/mL drug, if all of the drug had dissolved. The tubes were placed in a 37° C. temperature-controlled chamber, and 1.8 mL PBS was added.
Control 5 (C5) consisted of crystalline Drug 2 alone, tested in PBS, and a sufficient amount of material was added so that the concentration of drug would have been 1000 μg/mL, if all the drug had dissolved.
A sufficient amount of the composition was added to each tube (in duplicate) for a total concentration of 1000 μg/mL drug, if all of the drug has dissolved. The tubes were placed in a 37° C. temperature-controlled chamber, and 1.8 mL PBS was added.
As a control (C6), a composition consisting of 25 wt % Drug 2 and 75 wt % HPMCAS-HF was formed using the rotoevaporation process described for Example 6. The composition was tested in vitro, and a sufficient amount of material was added to PBS so that the concentration of drug would have been 1000 μg/mL, if all of the drug had dissolved.

[4] = glass transition temperature (Tg) by DSC; conditions: at less than 5% RH
Description: A solid composition was formed by a spray-drying process as follows. […] A spray solution was formed containing 2.5 wt % Viracept, 1.5 wt % Pluronic F127, 1.0 wt % HPMC, 85.5 wt % methanol, and 9.5 wt % water. The solution was mixed until the polymers and drug had all dissolved. The spray solution was pumped using a high-pressure pump to a spray drier (a Niro type XP Portable Spray-Dryer with a Liquid-Feed Process Vessel (“PSD-1”)), equipped with a pressure nozzle (model WG-126, from Delavan LTV). The PSD-1 was equipped with a 5-foot 9-inch chamber extension. The chamber extension was added to the spray dryer to increase the vertical length of the dryer. The added length increased the residence time within the dryer, which allowed the product to dry before reaching the angled section of the spray dryer. The spray drier was also equipped with a 316 SS circular diffuser plate with 1/16-inch drilled holes, having a 1% open area. […] The Tg of the resulting composition was determined by DSC to be about 107° C. at less than 5% RH.
Solid compositions containing Drug 1 were prepared using various amounts of poloxamer 407 and the stabilizing polymers hydroxypropyl methyl cellulose and hydroxypropyl methyl cellulose acetate succinate as described below. […] The Tg of each composition, measured at a relative humidity of less than 10%, is also included in Table 6.

[5] = solubility in PBS, pH 6.5; conditions: pH 6.5, aqueous buffer
[6] = Drug 1, PBS, initial ninety minutes
[7] = Drug 1, MFDS, initial ninety minutes

`Cc1c(O)cccc1C(=O)N[C@@H](CSc1ccccc1)[C@H](O)CN1C[C@H]2CCCC[C@H]2C[C@H]1C(=O)NC(C)(C)C` [Drug 1, N-(1,1-dimethylethyl)decahydro-2-[(2R,3R)-2-hydroxy-3[(3-hydroxy-2-methylbenzoyl)amino]-4-(phenylthio)butyl]-3-isoquinolinecarboxamide (3s, 4aS, 8aS)-monomethanesulfonate] showed an AUC90 [1, 6] of 285 µg·min/mL, an MDC90 [1, 6] of 6 µg/mL and an AUC ([1]; 0 min) of 0 µg·min/mL. The “Drug 1 Concentration” value ([1]; 0 min) was 0 µg/mL, the AUC ([1]; 4 min) was 11 µg·min/mL and the “Drug 1 Concentration” value ([1]; 4 min) was 5 µg/mL. The AUC ([1]; 10 min) was 46 µg·min/mL, the “Drug 1 Concentration” value ([1]; 10 min) was 6 µg/mL and the AUC ([1]; 20 min) was 106 µg·min/mL. For the same molecule, the “Drug 1 Concentration” value ([1]; 20 min) was 6 µg/mL, the AUC ([1]; 40 min) was 180 µg·min/mL and the “Drug 1 Concentration” value ([1]; 40 min) was 2 µg/mL. For the same molecule, the AUC ([1]; 90 min) was 285 µg·min/mL, the “Drug 1 Concentration” value ([1]; 90 min) was 2 µg/mL and the AUC ([1]; 1200 min) was 12,730 min*μg/mL. The “Drug 1 Concentration” value ([1]; 1200 min) was 20 µg/mL, the AUC90 [2, 7] was 9,500 min*μg/mL and the MDC90 [2, 7] was 118 µg/mL. The AUC ([2]; 0 min) was 0 µg·min/mL, the “Drug 1 Concentration” value ([2]; 0 min) was 0 µg/mL and the AUC ([2]; 4 min) was 160 µg·min/mL. The “Drug 1 Concentration” value ([2]; 4 min) was 80 µg/mL, the AUC ([2]; 10 min) was 700 µg·min/mL and the “Drug 1 Concentration” value ([2]; 10 min) was 98 µg/mL. For the same molecule, the AUC ([2]; 20 min) was 1,700 min*μg/mL, the “Drug 1 Concentration” value ([2]; 20 min) was 102 µg/mL and the AUC ([2]; 40 min) was 3,800 min*μg/mL. The “Drug 1 Concentration” value ([2]; 40 min) was 108 µg/mL, the AUC ([2]; 90 min) was 9,500 min*μg/mL and the “Drug 1 Concentration” value ([2]; 90 min) was 118 µg/mL. The AUC ([2]; 1200 min) was 247,000 min*μg/mL, the “Drug 1 Concentration” value ([2]; 1200 min) was 310 µg/mL and the AUC90 ([3]; Drug 2, PBS) was less than 100 µg·min/mL. The MDC90 ([3]; Drug 2, PBS) was less than 1 µg/mL, the Tg [4] was 119 °C and the solubility [5] was roughly 20 µg/mL (≈ 35.2 µM).
`CCOC(=O)N1c2ccc(C(F)(F)F)cc2[C@@H](N(Cc2cc(C(F)(F)F)cc(C(F)(F)F)c2)C(=O)OC)C[C@H]1CC` [Drug 2, [2R,4S] 4-[(3,5-bis-trifluoromethyl-benzyl)-methoxycarbonyl-amino]-2-ethyl-6-trifluoromethyl-3,4-dihydro-2H-quinoline-1-carboxylic acid ethyl ester] showed a C1200 ([3]; Drug 2, PBS, concentration of drug at 1200 minutes) of less than 1 µg/mL, an AUC90 ([3]; Drug 2, PBS) of less than 100 µg·min/mL and an MDC90 ([3]; Drug 2, PBS) of less than 1 µg/mL. The AUC ([3]; 0 min) was less than 100 µg·min/mL, the “Drug 2 Concentration” value ([3]; 0 min) was less than 1 µg/mL and the AUC ([3]; 4 min) was less than 100 µg·min/mL. The “Drug 2 Concentration” value ([3]; 4 min) was less than 1 µg/mL, the AUC ([3]; 10 min) was less than 100 µg·min/mL and the “Drug 2 Concentration” value ([3]; 10 min) was less than 1 µg/mL. The AUC ([3]; 20 min) was less than 100 µg·min/mL, the “Drug 2 Concentration” value ([3]; 20 min) was less than 1 µg/mL and the AUC ([3]; 40 min) was less than 100 µg·min/mL. The “Drug 2 Concentration” value ([3]; 40 min) was less than 1 µg/mL, the AUC ([3]; 90 min) was less than 100 µg·min/mL and the “Drug 2 Concentration” value ([3]; 90 min) was less than 1 µg/mL. For the same molecule, the AUC ([3]; 1200 min) was less than 100 µg·min/mL, the “Drug 2 Concentration” value ([3]; 1200 min) was less than 1 µg/mL and the Tg [4] was “about 30 °C”. It also gave a solubility [5] of less than 1 µg/mL.
